Assay results taken from patent publication US20130071854A1, “METHODS FOR THE IDENTIFICATION AND CHARACTERIZATION OF HDAC INTERACTING COMPOUNDS” (priority 2009, published 2013).
pKd: −log10 of the molar value. Read-outs that look alike come from different tables or passages of the source.

Legend:
[1] = tested on: Sin3 complex; assay: Chemoproteomic binding profiling, K562 cell extract, SAHA/ITF2357 probe matrix (Kd app); parameters: species or system human
[2] = target: Sin3 complex (Homo sapiens, UniProt Q13547+Q92769); assay: as above
[3] = protein SAP30, read-out: Kd^app SAP30
[4] = protein SIN3A, read-out: Kd^app SIN3A
[5] = protein SIN3B, read-out: Kd^app SIN3B

| Structure (SMILES) | pKd [1, 3] | pKd [1, 4] | pKd [1, 5] | pKd [2, 3] | pKd [2, 4] | pKd [2, 5] |
| --- | --- | --- | --- | --- | --- | --- |
| Nc1ccccc1NC(=O)CCCCCCC(=O)Nc1ccccc1 [BML-210] | < 4.07 | < 4.07 | < 4.07 |  |  |  |
| CCCCOc1ccc(CC(=O)NO)cc1 [bufexamac] |  |  |  | 3.90 | 3.73 | < 4.22 |
